Test results: the SangsterLogP compilation

Test: method code SF-AS,RC, from DOI: 10.1021/es00166a009, PMID: 22195514
Conditions: pH 1.5

SMILES | logD
Cc1cccc(O)c1[N+](=O)[O-] | 2.29

Test: method code SF-AS, from DOI: 10.1021/es00166a009, PMID: 22195514
Conditions: not given

SMILES | logP
Cc1ccc([N+](=O)[O-])c(O)c1 | 2.31

Same assay, conditions: pH 1.5

SMILES | logD
O=Cc1ccc(O)c([N+](=O)[O-])c1 | 1.48
O=[N+]([O-])c1cc(C(F)(F)F)ccc1O | 2.34
O=[N+]([O-])c1ccccc1O | 1.89
O=[N+]([O-])c1ccc(F)cc1O | 1.91
Cc1ccc(O)c([N+](=O)[O-])c1 | 2.37
Cc1cc(O)c([N+](=O)[O-])cc1Cl | 2.93
COc1ccc(O)c([N+](=O)[O-])c1 | 2.02
O=[N+]([O-])c1cc(-c2ccccc2)ccc1O | 3.71
CCC(C)c1ccc(O)c([N+](=O)[O-])c1 (stereo unspecified) | 3.84
